Laboratory results reported in patent publication US11673910B2, “Macrolides with modified desosamine sugars and uses thereof” (Zikani Therapeutics, Inc., priority 2017, dated 2023).
Values after ≈ are worked out from the molar mass of the structure shown.

Legend:
Format in all cases: cell-based
S. aureus strain MP-12 = assay: Broth dilution MIC determination (CLSI) against S. aureus strain MP-12; conditions: for MIC: Staphylococcus aureus, MP12, strain MP-12
Summary of the method: (§1)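 MICs of the macrolides were determined by standard CLSI broth dilution. Values are binned: +++ for ≤4 mg/L, ++ for ≥8 and <32 mg/L, + for ≥32 mg/L.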

E. coli strain MP-4 = assay: Broth dilution MIC determination (CLSI) against E. coli strain MP-4; conditions: Escherichia coli, MP4
Summary of the method: as §1

[1] = tested on: A. baumannii strain MP-15; assay: Broth dilution MIC determination (CLSI) against A. baumannii strain MP-15; conditions: Acinetobacter baumannii, MP15
Summary of the method: as §1

[2] = tested on: K. pneumoniae strain MP-548; assay: Broth dilution MIC determination (CLSI) against K. pneumoniae strain MP-548; conditions: Klebsiella pneumoniae, MP548
Summary of the method: as §1

[3] = tested on: P. aeruginosa strain MP-3; assay: Broth dilution MIC determination (CLSI) against P. aeruginosa strain MP-3; conditions: Pseudomonas aeruginosa, MP3
Summary of the method: as §1

| SMILES | MIC (S. aureus strain MP-12) [µg/mL] | MIC (E. coli strain MP-4) [µg/mL] | MIC [1] [µg/mL] | MIC [2] [µg/mL] | MIC [3] [µg/mL] | MIC against S. aureus (MP-12) (S. aureus strain MP-12; strain MP-12) |
| --- | --- | --- | --- | --- | --- | --- |
| CC[C@H]1OC(=O)C(C)C(=O)[C@H](C)[C@@H](O[C@@H]2OC(CNc3ccc(F)cc3)CC(N(C)C)C2O)[C@](C)(OC)C[C@@H](C)CN[C@H](C)[C@H]2NC(=O)O[C@@]21C (stereo partly shown) [Compound 46] | 8 to 32 (≈ 11.1 to 44.3 µM) | ≤ 4 | ≥ 32 | 8 to 32 (≈ 11.1 to 44.3 µM) | ≥ 32 |  |
| CC[C@H]1OC(=O)[C@@](C)(F)C(=O)[C@H](C)[C@@H](O[C@@H]2OC(CNCc3cccnc3)CC(N(C)C)C2O)[C@](C)(OC)C[C@@H](C)C(=O)[C@H](C)[C@H]2NC(=O)O[C@@]21C (stereo partly shown) [Compound 101] | ≤ 4 | ≥ 32 | ≥ 32 | ≥ 32 | ≥ 32 |  |
| C#CCNCC1CC(N(C)C)C(O)[C@H](O[C@@H]2[C@@H](C)C(=O)C(C)C(=O)O[C@H](CC)[C@@]3(C)OC(=O)N[C@@H]3[C@@H](C)NC[C@H](C)C[C@@]2(C)OC)O1 (stereo partly shown) [Compound 53] | ≥ 32 | ≤ 4 | ≥ 32 | 8 to 32 (≈ 12 to 48 µM) | ≥ 32 |  |
| CC[C@H]1OC(=O)C(C)C(=O)[C@H](C)[C@@H](O[C@@H]2OC(CNCc3ccc(N(C)C)cc3)CC(N(C)C)C2O)[C@](C)(OC)C[C@@H](C)CN[C@H](C)[C@H]2NC(=O)O[C@@]21C (stereo partly shown) [Compound 44] | ≥ 32 | ≤ 4 | ≥ 32 | ≥ 32 | ≥ 32 |  |
| CC[C@H]1OC(=O)C(C)C(=O)[C@H](C)[C@@H](OC2OC(CNC3(C)CC3)CC(N(C)C)C2O)[C@](C)(OC)C[C@@H](C)CN[C@H](C)[C@H]2NC(=O)O[C@@]21C (stereo partly shown) [Compound 133, 3-Descladinosyl-3-oxo-6-O-methyl-N9a-desmethyl-11,12-dideoxy-12,11-(oxycarbonylimino)-6′-(1-methyl-1-cyclopropylamino) Azithromycin] | 8 to 32 (≈ 11.7 to 46.9 µM) | ≤ 4 | 8 to 32 (≈ 11.7 to 46.9 µM) | 8 to 32 (≈ 11.7 to 46.9 µM) | ≥ 32 |  |
| CC[C@H]1OC(=O)[C@@]2(C)CCOC(C)(C[C@@H](C)CN(C)[C@H](C)[C@H]3NC(=O)O[C@@]31C)[C@H](O[C@@H]1O[C@H](CN(C)C3CC3)C[C@H](N(C)C)[C@H]1O)[C@@H](C)C2=O [Compound 209] | ≤ 4 | ≤ 4 | 8 to 32 (≈ 11.3 to 45.1 µM) | ≤ 4 | ≥ 32 |  |
| CC[C@H]1OC(=O)C(C)C(=O)[C@H](C)[C@@H](O[C@@H]2OC(CNCc3ccc(F)cc3F)CC(N(C)C)C2O)[C@](C)(OC)C[C@@H](C)CN[C@H](C)[C@H]2NC(=O)O[C@@]21C (stereo partly shown) [Compound 31] | ≥ 32 | ≤ 4 | ≥ 32 | ≥ 32 | ≥ 32 |  |
| CC[C@H]1OC(=O)C(C)C(=O)[C@H](C)[C@@H](O[C@@H]2O[C@H](C(C)NCC3CC3)CC(N(C)C)[C@H]2O)[C@](C)(OC)C[C@@H](C)CN[C@H](C)[C@H]2NC(=O)O[C@@]21C (stereo partly drawn) [Compound 178, 3-Descladinosyl-3-oxo-6-O-methyl-N9a-desmethyl-11,12-dideoxy-12,11-(oxycarbonylimino)-6′-((R,S)-(cyclopropylmethylamino)ethyl) Azithromycin] | ≥ 32 | ≤ 4 | ≥ 32 | 8 to 32 (≈ 11.5 to 45.9 µM) | ≥ 32 |  |
| CC[C@H]1OC(=O)C(C)C(=O)[C@H](C)[C@@H](OC2OC(C(=O)NC)CC(N(C)C)C2O)[C@](C)(OC)C[C@@H](C)CN[C@H](C)[C@H]2NC(=O)O[C@@]21C (stereo partly shown) [Compound 166, 3-Descladinosyl-3-oxo-6-O-methyl-N9a-desmethyl-11,12-dideoxy-12,11-(oxycarbonylimino)-5′-desmethyl-5′-(N-methylcarboxamido) Azithromycin] | ≥ 32 | 8 to 32 (≈ 12.2 to 48.7 µM) | ≥ 32 | ≥ 32 | ≥ 32 |  |
| CC[C@H]1OC(=O)[C@]2(C)CCO[C@](C)(C[C@@H](C)CN[C@H](C)[C@H]3NC(=O)O[C@@]31C)[C@H](O[C@@H]1O[C@H](CNCC3CC3)C[C@H](N(C)C)[C@H]1O)[C@@H](C)C2=O [Compound 196] | ≥ 32 | 8 to 32 (≈ 11.5 to 46 µM) | ≥ 32 | ≥ 32 | ≥ 32 |  |
| CC[C@H]1OC(=O)[C@@]2(C)CC/C(=N\O)CO[C@](C)(C[C@@H](C)CN[C@H](C)[C@H]3NC(=O)O[C@@]31C)[C@H](OC1OC(C)CC(N(C)C)C1O)[C@@H](C)C2=O (stereo partly shown) [Compound 227] | ≥ 32 | ≥ 32 | ≥ 32 | ≥ 32 | ≥ 32 |  |
| CC[C@H]1OC(=O)C(C)C(=O)[C@H](C)[C@@H](O[C@@H]2O[C@H]([C@H](C)N3CCCCC3)CC(N(C)C)[C@H]2O)[C@](C)(OC)C[C@@H](C)CN[C@H](C)[C@H]2NC(=O)O[C@@]21C (stereo partly drawn) [Compound 179, 3-Descladinosyl-3-oxo-6-O-methyl-N9a-desmethyl-11,12-dideoxy-12,11-(oxycarbonylimino)-6′-((S)-1-(piperidin-1-yl)ethyl) Azithromycin] | ≥ 32 | ≤ 4 | ≥ 32 | 8 to 32 (≈ 11.3 to 45 µM) | ≥ 32 |  |
| CC[C@H]1OC(=O)C(C)C(=O)[C@H](C)[C@@H](OC2OC(CN(C)CC3CC3)CC(N(C)C)C2O)[C@](C)(OC)C[C@@H](C)CN[C@H](C)[C@H]2NC(=O)O[C@@]21C (stereo partly shown) [Compound 153, 3-Descladinosyl-3-oxo-6-O-methyl-N9a-desmethyl-11,12-dideoxy-12,11-(oxycarbonylimino)-6′-methylcyclopropylmethylamino Azithromycin] | ≥ 32 | ≤ 4 | ≥ 32 | ≥ 32 | ≥ 32 |  |
| CC[C@H]1OC(=O)C(C)C(=O)[C@H](C)[C@@H](O[C@@H]2OC(CNCc3ccc(C(F)(F)F)cc3)CC(N(C)C)C2O)[C@](C)(OC)C[C@@H](C)CN[C@H](C)[C@H]2NC(=O)O[C@@]21C (stereo partly shown) [Compound 35] | ≥ 32 | ≤ 4 | 8 to 32 (≈ 10.2 to 40.7 µM) | ≥ 32 | ≥ 32 |  |
| CC[C@H]1OC(=O)C(C)C(=O)[C@H](C)[C@@H](OC2OC(CCNC3CC3)CC(N(C)C)C2O)[C@](C)(OC)C[C@@H](C)CN[C@H](C)[C@H]2NC(=O)O[C@@]21C (stereo partly shown) [Compound 187, 3-Descladinosyl-3-oxo-6-O-methyl-N9a-desmethyl-11,12-dideoxy-12,11-(oxycarbonylimino)-5′-desmethyl-5′-(2-(aminocyclopropyl)ethyl) Azithromycin] | ≥ 32 | ≤ 4 | ≥ 32 | ≤ 4 | ≥ 32 |  |
| CC[C@H]1OC(=O)C(C)C(=O)[C@H](C)[C@@H](OC2OC(CN(C)CC)CC(N(C)C)C2O)[C@](C)(OC)C[C@@H](C)CN(C)[C@H](C)[C@H]2NC(=O)O[C@@]21C (stereo partly shown) [Compound 158, 3-Descladinosyl-3-oxo-6-O-methyl-11,12-dideoxy-12,11-(oxycarbonylimino)-6′-ethylmethylamino Azithromycin] | ≥ 32 | ≤ 4 | ≥ 32 | 8 to 32 (≈ 11.7 to 46.7 µM) | ≥ 32 |  |
| CC[C@H]1OC(=O)C(C)C(=O)[C@H](C)[C@@H](O[C@@H]2OC(CNCCc3ccc(F)cc3)CC(N(C)C)C2O)[C@](C)(OC)C[C@@H](C)CN[C@H](C)[C@H]2NC(=O)O[C@@]21C (stereo partly shown) [Compound 39] | ≥ 32 | ≤ 4 | ≥ 32 | ≥ 32 | ≥ 32 |  |
| CO[C@]1(C)C[C@@H](C)CN[C@H](C)[C@H]2NC(=O)O[C@]2(C)[C@@H](C)OC(=O)C(C)C(=O)[C@H](C)[C@H]1OC1OC(CNC2CC2)CC(N(C)C)C1O (stereo partly shown) [Compound 146, 3-Descladinosyl-3-oxo-6-O-methyl-N9a-desmethyl-11,12-dideoxy-12,11-(oxycarbonylimino)-6′-cyclopropylamino-13-methyl Azithromycin] | ≥ 32 | ≥ 32 | ≥ 32 | ≥ 32 | ≥ 32 |  |
| CC[C@H]1OC(=O)[C@]2(C)CCOC(C)(C[C@@H](C)CN[C@H](C)[C@H]3NC(=O)O[C@@]31C)[C@H](O[C@@H]1O[C@H](CNC34CC(C3)C4)C[C@H](N(C)C)[C@H]1O)[C@@H](C)C2=O [Compound 212] |  | ≤ 4 | 8 to 32 (≈ 11.3 to 45.3 µM) | 8 to 32 (≈ 11.3 to 45.3 µM) | ≥ 32 | +++ (values less than or equal to 4 mg/L) |
| CC[C@@H]1CC(N(C)C)[C@@H](O)[C@H](O[C@@H]2[C@@H](C)C(=O)C(C)C(=O)O[C@H](CC)[C@@]3(C)OC(=O)N[C@@H]3[C@@H](C)NC[C@H](C)C[C@@]2(C)OC)O1 (stereo partly shown) [Compound 182, 3-Descladinosyl-3-oxo-6-O-methyl-N9a-desmethyl-11,12-dideoxy-12,11-(oxycarbonylimino)-5′-desmethyl-5′-ethyl Azithromycin] | 8 to 32 (≈ 12.7 to 51 µM) | ≤ 4 | 8 to 32 (≈ 12.7 to 51 µM) | 8 to 32 (≈ 12.7 to 51 µM) | ≥ 32 |  |
| CC[C@H]1OC(=O)C(C)C(=O)[C@H](C)[C@@H](O[C@@H]2OC(CNCc3cccc(F)c3)CC(N(C)C)C2O)[C@](C)(OC)C[C@@H](C)CN[C@H](C)[C@H]2NC(=O)O[C@@]21C (stereo partly shown) [Compound 30] | ≥ 32 | ≤ 4 | ≥ 32 | ≥ 32 | ≥ 32 |  |
| CC[C@H]1OC(=O)C(C)C(=O)[C@H](C)[C@@H](O[C@@H]2O[C@H](CNC3CC3)CC(N(C)C)[C@H]2O)[C@](C)(OC)C[C@@H](C)CN(C)[C@H](C)[C@H]2N(C)C(=O)O[C@]12C (stereo partly shown) [Compound 191] | ≥ 32 | ≤ 4 | ≥ 32 | 8 to 32 (≈ 11.5 to 45.9 µM) | ≥ 32 |  |
| CC[C@H]1OC(=O)C(C)C(=O)[C@H](C)[C@@H](O[C@@H]2OC(CNCc3ccc(F)cc3)CC(N(C)C)C2O)[C@](C)(OC)C[C@@H](C)CN[C@H](C)[C@H]2NC(=O)O[C@@]21C (stereo partly shown) [Compound 18] | ≥ 32 | ≤ 4 | ≥ 32 | 8 to 32 (≈ 10.9 to 43.4 µM) | ≥ 32 |  |
